Drawing on PubChem BioAssay AID1259407 (Chemical Carcinogenesis Research Information System (CCRIS), 2018), this text covers mutagenic call for 13 molecules.

Active and inactive are the calls of the source. How the calls were made is not given here.

The subject of the data set is CCRIS mutagenicity, Ames/micronucleus/aberration tests. Kind of data set: CCRIS mutagenicity studies.
The mark [1] stands for this setting: Test System: AMES SALMONELLA TYPHIMURIUM, Strain/Indicator: TA98, Metabolic Activation: NONE, Method: STANDARD PLATE.
[2] abbreviates: Test System: AMES SALMONELLA TYPHIMURIUM, Strain/Indicator: TA100, Metabolic Activation: NONE, Method: STANDARD PLATE.
[3] abbreviates: Test System: AMES SALMONELLA TYPHIMURIUM, Strain/Indicator: TA1535, Metabolic Activation: NONE, Method: STANDARD PLATE.
[4] abbreviates: Test System: AMES SALMONELLA TYPHIMURIUM, Strain/Indicator: TA98, Metabolic Activation: RAT, LIVER, S-9, AROCLOR 1254, Method: STANDARD PLATE.

On to `CCC(C)OS(C)(=O)=O` (stereo not given), for which the mutagenic call is “active; positive” (End Point: IN VITRO MICRONUCLEUS, Test System: MOUSE LYMPHOMA L5178Y CELLS, Metabolic Activation: NONE); “active; positive” (End Point: IN VITRO MICRONUCLEUS, Test System: MOUSE LYMPHOMA L5178Y CELLS, Metabolic Activation: RAT, LIVER, S-9); “active; positive” under setting [1]; “active; positive” (Test System: AMES SALMONELLA TYPHIMURIUM, Strain/Indicator: TA98, Metabolic Activation: RAT, LIVER, S-9, Method: STANDARD PLATE); “active; positive” under setting [2]; “active; positive” (Test System: AMES SALMONELLA TYPHIMURIUM, Strain/Indicator: TA100, Metabolic Activation: RAT, LIVER, S-9, Method: STANDARD PLATE). Further, the mutagenic call reads like this: under setting [3], “active; positive”; (Test System: CHINESE HAMSTER V-79, Strain/Indicator: V-79/6-THIOGUANINE, Metabolic Activation: NONE) “active; positive”.
On to `[N-]=[N+]=CC(=O)NCC(N)=O`, for which the mutagenic call is “active; positive” under setting [3] and “active; positive” (Test System: UDS RODENT CELLS, Strain/Indicator: THY INCORP (NON-S-PHASE), Metabolic Activation: NONE, Method: AUTORADIOGRAPHY).
Turning to `CC(C)c1ccc(/C=C/c2ccc([N+](=O)[O-])cc2)cc1`, the mutagenic call is, setting by setting: under setting [1], “inactive; negative”; (Test System: AMES SALMONELLA TYPHIMURIUM, Strain/Indicator: TA98, Metabolic Activation: RAT, LIVER, S-9, AROCLOR, Method: STANDARD PLATE) “active; positive”; under setting [2], “inactive; negative”; (Test System: AMES SALMONELLA TYPHIMURIUM, Strain/Indicator: TA100, Metabolic Activation: RAT, LIVER, S-9, AROCLOR, Method: STANDARD PLATE) “active; positive”.
Regarding `Cc1cc(Cc2cc(C)cc(C(C)(C)C)c2O)c(O)c(C(C)(C)C)c1`, the mutagenic call runs as follows: under setting [1], “inactive; negative”; (Test System: AMES SALMONELLA TYPHIMURIUM, Strain/Indicator: TA98, Metabolic Activation: S-9, Method: STANDARD PLATE) “inactive; negative”; under setting [2], “inactive; negative”; (Test System: AMES SALMONELLA TYPHIMURIUM, Strain/Indicator: TA100, Metabolic Activation: S-9, Method: STANDARD PLATE) “inactive; negative”.
Consider `Cc1c(C(=O)O)c(O)cc2c1C(=O)c1c(O)c([C@@H]3O[C@@H](CO)[C@H](O)[C@@H](O)[C@H]3O)c(O)c(O)c1C2=O`, for which, for the setting “Test System: AMES SALMONELLA TYPHIMURIUM, Strain/Indicator: TA100, Method: PREINCUBATION”, the mutagenic call was “active; positive”.
Regarding `COc1c2c(cc3oc4c(CCC(C)(C)O)ccc(O)c4c(=O)c13)O[C@H]1OC=C[C@@H]21`, the mutagenic call was “active; positive” under setting [1]; “active; positive” under setting [4]; “inactive; negative” under setting [2]; “active; positive” (Test System: AMES SALMONELLA TYPHIMURIUM, Strain/Indicator: TA100, Metabolic Activation: RAT, LIVER, S-9, AROCLOR 1254, Method: STANDARD PLATE).
As to `CCN(COC(C)=O)N=O`, for the setting “Test System: UDS RAT UROTHELIAL CELLS, Strain/Indicator: THY INCORP, Metabolic Activation: NONE”, the mutagenic call is “active; positive”.
As for `CCCCCCCCCCCCOS(=O)(=O)O`, the mutagenic call is “inactive; negative” (Test System: AMES SALMONELLA TYPHIMURIUM, Strain/Indicator: TA98, Metabolic Activation: HAMSTER, LIVER, S-9, AROCLOR 1254 (10%), Method: PREINCUBATION); “inactive; negative” (Test System: AMES SALMONELLA TYPHIMURIUM, Strain/Indicator: TA98, Metabolic Activation: NONE, Method: PREINCUBATION); “inactive; negative” (Test System: AMES SALMONELLA TYPHIMURIUM, Strain/Indicator: TA98, Metabolic Activation: RAT, LIVER, S-9, AROCLOR 1254 (10%), Method: PREINCUBATION); “inactive; negative” (Test System: AMES SALMONELLA TYPHIMURIUM, Strain/Indicator: TA100, Metabolic Activation: HAMSTER, LIVER, S-9, AROCLOR 1254 (10%), Method: PREINCUBATION); “inactive; negative” (Test System: AMES SALMONELLA TYPHIMURIUM, Strain/Indicator: TA100, Metabolic Activation: NONE, Method: PREINCUBATION); “inactive; negative” (Test System: AMES SALMONELLA TYPHIMURIUM, Strain/Indicator: TA100, Metabolic Activation: RAT, LIVER, S-9, AROCLOR 1254 (10%), Method: PREINCUBATION). Also, the mutagenic call was “inactive; negative” (Test System: AMES SALMONELLA TYPHIMURIUM, Strain/Indicator: TA1535, Metabolic Activation: HAMSTER, LIVER, S-9, AROCLOR 1254 (10%), Method: PREINCUBATION); “inactive; negative” (Test System: AMES SALMONELLA TYPHIMURIUM, Strain/Indicator: TA1535, Metabolic Activation: NONE, Method: PREINCUBATION); “inactive; negative” (Test System: AMES SALMONELLA TYPHIMURIUM, Strain/Indicator: TA1535, Metabolic Activation: RAT, LIVER, S-9, AROCLOR 1254 (10%), Method: PREINCUBATION); “inactive; negative” (Test System: AMES SALMONELLA TYPHIMURIUM, Strain/Indicator: TA1537, Metabolic Activation: HAMSTER, LIVER, S-9, AROCLOR 1254 (10%), Method: PREINCUBATION); “inactive; negative” (Test System: AMES SALMONELLA TYPHIMURIUM, Strain/Indicator: TA1537, Metabolic Activation: NONE, Method: PREINCUBATION); “inactive; negative” (Test System: AMES SALMONELLA TYPHIMURIUM, Strain/Indicator: TA1537, Metabolic Activation: RAT, LIVER, S-9, AROCLOR 1254 (10%), Method: PREINCUBATION).
As to `CCc1c(O)c(=O)ccn1CC`, the mutagenic call was “active; positive” (Test System: Mouse lymphoma, Strain/Indicator: L5178Y (tk+/tk-), Metabolic Activation: None, Method: Suspension/plate) and “active; positive” (Test System: Mouse lymphoma, Strain/Indicator: L5178Y (tk+/tk-), Metabolic Activation: Rat, Liver, S-9, Aroclor 1254, Method: Suspension/plate).
In the case of `O[C@H]1[C@H]2O[C@H]2c2c(ccc3c4c5c(cccc5cc23)C=C4)[C@@H]1O`, the mutagenic call runs as follows: under setting [1], “active; positive”; (Test System: AMES SALMONELLA TYPHIMURIUM, Strain/Indicator: TA98, Metabolic Activation: RAT, LIVER, S-9, AROCLOR 1254 (0.4, 0.8, 1.15 OR 1.5 MG/PLATE), Method: STANDARD PLATE) “active; positive”; under setting [4], “active; positive”.
On to `O=[N+]([O-])c1ccc2c3c4c(cccc4c4ccccc4c13)[C@H](O)[C@H]2O`, for which the mutagenic call is, setting by setting: (Test System: AMES SALMONELLA TYPHIMURIUM, Strain/Indicator: TA98(1,8-DNP6), Metabolic Activation: NONE, Method: STANDARD PLATE) “active; positive”; (Test System: AMES SALMONELLA TYPHIMURIUM, Strain/Indicator: TA98(1,8-DNP6), Metabolic Activation: RAT, LIVER, S-9, AROCLOR 1254, Method: STANDARD PLATE) “active; positive”; (Test System: AMES SALMONELLA TYPHIMURIUM, Strain/Indicator: TA98(NR), Metabolic Activation: NONE, Method: STANDARD PLATE) “active; positive”; (Test System: AMES SALMONELLA TYPHIMURIUM, Strain/Indicator: TA98(NR), Metabolic Activation: RAT, LIVER, S-9, AROCLOR 1254, Method: STANDARD PLATE) “active; positive”; under setting [1], “active; positive”; under setting [4], “active; positive”.
Consider `CCCN(CO)N=O`, for which the mutagenic call (Test System: CHINESE HAMSTER V-79, Strain/Indicator: V-79/OUABAIN, Metabolic Activation: NONE) is “active; positive”.
In the case of `CCCCC/C=C/C=O`, the mutagenic call (Test System: CHINESE HAMSTER V-79, Strain/Indicator: V-79/6-THIOGUANINE, Metabolic Activation: NONE, Method: STANDARD PLATE) was “active; positive” and the mutagenic call (Test System: CHINESE HAMSTER V-79, Strain/Indicator: V-79/OUABAIN, Metabolic Activation: NONE, Method: STANDARD PLATE) is “inactive; negative”.
